Values quoted from earlier work in EP4659596A1 (Nicoventures Trading Limited, priority 2024, dated 2025).

Settings: partition coefficient between octanol and water; organic acids of Table 1
For `CC(C)[C@@H]1CC[C@@H](C)C[C@H]1OC(=O)CCC(=O)O` [monomenthyl succinate], the logP is listed as 3.
In the case of ethyl benzoic acid, the logP is given as 2.9.
In the case of isopropyl benzoic acid, the logP is listed as 3.5.
